Read-outs that look alike come from different tables or passages of the source.
Molecular target: T1, Human M4 (Homo sapiens, UniProt P08173)
T1 construct: expressed in transfected cells; host or cells: CHO-K1 (ATCC), co-transfected with chimeric G protein Gqi5
T1 sequence (P08173 1-479): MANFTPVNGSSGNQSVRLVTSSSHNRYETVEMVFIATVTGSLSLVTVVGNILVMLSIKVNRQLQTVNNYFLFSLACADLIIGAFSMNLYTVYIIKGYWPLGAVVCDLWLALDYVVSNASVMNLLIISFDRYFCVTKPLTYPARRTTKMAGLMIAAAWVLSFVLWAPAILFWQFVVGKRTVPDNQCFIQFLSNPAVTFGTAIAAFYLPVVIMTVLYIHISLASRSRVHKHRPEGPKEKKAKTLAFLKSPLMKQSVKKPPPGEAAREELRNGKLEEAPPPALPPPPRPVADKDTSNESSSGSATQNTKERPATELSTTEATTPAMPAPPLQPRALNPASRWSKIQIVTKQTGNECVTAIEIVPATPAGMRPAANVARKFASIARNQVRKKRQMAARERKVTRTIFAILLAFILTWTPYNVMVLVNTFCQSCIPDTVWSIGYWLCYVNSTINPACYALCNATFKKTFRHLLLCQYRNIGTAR
Test: mAChR M4 cell-based functional assay (calcium flux, antagonism of EC80 acetylcholine response)
Details: for IC50: concentration-dependent decrease of the response elicited by an EC80 concentration of acetylcholine
Protocol: Human or rat M4 cDNA, along with the chimeric G protein Gqi5, were transfected into Chinese hamster ovary (CHO-K1) cells purchased from the American Type Culture Collection using Lipofectamine2000. M4/Gqi5/CHO cells were grown in Ham's F-12 medium containing 10% heat-inactivated fetal bovine serum (FBS), 20 mM HEPES, 500 μg/mL G418 sulfate, and 200 μg/mL Hygromycin B.
For high throughput measurement of agonist-evoked increases in intracellular calcium, CHO-K1 cells stably expressing muscarinic receptors were plated in growth medium lacking G418 and hygromycin at 15,000 cells/20 μL/well in Greiner 384-well black-walled, tissue culture (TC)-treated, clear-bottom plates (VWR). Cells were incubated overnight at 37° C. and 5% CO2. The next day, cells were washed using an ELX 405 (BioTek) with assay buffer; the final volume was then aspirated to 20 μL. Next, 20 μL of a 2.3 μM stock of Fluo-4/acetoxymethyl ester (Invitrogen, Carlsbad, CA), prepared as a 2.3 mM stock in DMSO and mixed in a 1:1 ratio with 10% (w/v) Pluronic F-127 and diluted in assay buffer, was added to the wells and the cell plates were incubated for 50 min at 37° C. and 5% CO2. Dye was removed by washing with the ELX 405 and the final volume was aspirated to 20 μL. Compound master plates were formatted in a 10 point concentration-response curve (CRC) format (1:3 dilutions) in 100% DMSO with a starting concentration of 10 or 1 mM using a BRAVO liquid handler (Agilent). Test compound CRCs were then transferred to daughter plates (240 nL) using the Echo acoustic plate reformatter (Labcyte, Sunnyvale, CA) and then diluted into assay buffer (40 μL) to a 2× stock using a Thermo Fisher Combi (Thermo Fisher Scientific, Waltham, MA).
Calcium flux was measured using the Functional Drug Screening System (FDSS) 6000 or 7000 (Hamamatsu Corporation, Tokyo, Japan) as an increase in the fluorescent static ratio. Compounds were applied to cells (20 μL, 2×) using the automated system of the FDSS at 2 seconds into the protocol and the data were collected at 1 Hz. At 143 s, 10 μL of an EC20 concentration of the muscarinic receptor agonist acetylcholine was added (5×), followed by the addition of 12 μL of an EC80 concentration of acetylcholine at the 268 s time point (5×). Agonist activity was analyzed as a concentration-dependent increase in calcium mobilization upon compound addition. Positive allosteric modulator activity was analyzed as a concentration-dependent increase in the EC20 acetylcholine response. Antagonist activity was analyzed as a concentration-dependent decrease in the EC80 acetylcholine response; for the purposes of the tables herein, an IC50 (inhibitory concentration 50) was calculated as a concentration-dependent decrease of the response elicited by an EC80 concentration of acetylcholine. Concentration-response curves were generated using a four-parameter logistical equation in XLFit curve fitting software (IDBS, Bridgewater, NJ) for Excel (Microsoft, Redmond, WA) or Prism (GraphPad Software, Inc., San Diego, CA) or the Dotmatics software platform (Dotmatics, Bishop's Stortford, UK).
Compounds were synthesized as described above. Activity (IC50 and Emin) was determined in the mAChR M4 cell-based functional assay as described above and the data are shown in Table 2.

[1] = M4/Gqi5/CHO-K1 cells, % ACh maximum at 30 μM, read-out: Human M4 Emin (% ACh maximum at 30 μM)
[2] = CHO-K1, read-out: Human M4 Emin (% ACh maximum at 30 μM)

**Q.** For O=C(Nc1cc(F)c(F)c(-c2ccc(N[C@H]3C[C@@H]4CN(CC5CCOCC5)C[C@@H]4C3)nn2)c1)C1(C(F)(F)F)CC1 [Compound A11, N-(3,4-difluoro-5-(6-(((3aR,5s,6aS)-2-((tetrahydro-2H-pyran-4-yl)methyl)octahydrocyclopenta[c]pyrrol-5-yl)amino)pyridazin-3-yl)phenyl)-1-(trifluoromethyl)cyclopropane-1-carboxamide], which remaining activity at 30 µM [1] is on record?
**A.** The remaining activity at 30 µM was 3%.

**Q.** And the IC50 (M4/Gqi5/CHO-K1 cells)?
**A.** The IC50 was 66 nM.

**Q.** How did the remaining activity at 30 µM [1] turn out when O=C(Nc1cc(F)c(F)c(-c2ccc(N[C@H]3C[C@@H]4CN(CC5CCOCC5)C[C@@H]4C3)nn2)c1)C1(F)CC1 [Compound A12, N-(3,4-difluoro-5-(6-(((3aR,5s,6aS)-2-((tetrahydro-2H-pyran-4-yl)methyl)octahydrocyclopenta[c]pyrrol-5-yl)amino)pyridazin-3-yl)phenyl)-1-fluorocyclopropane-1-carboxamide] was run?
**A.** The remaining activity at 30 µM was 4%.

**Q.** And the IC50 (M4/Gqi5/CHO-K1 cells)?
**A.** The IC50 was 85 nM.

**Q.** What does the source list for O=C(Nc1cc(F)c(F)c(-c2ccc(N[C@H]3C[C@@H]4CN(CC5CCOCC5)C[C@@H]4C3)nn2)c1)C1(O)CCC1 [Compound A13, N-(3,4-difluoro-5-(6-(((3aR,5s,6aS)-2-((tetrahydro-2H-pyran-4-yl)methyl)octahydrocyclopenta[c]pyrrol-5-yl)amino)pyridazin-3-yl)phenyl)-1-hydroxycyclobutane-1-carboxamide]?
**A.** remaining activity at 30 µM [1]: 4%; IC50 (M4/Gqi5/CHO-K1 cells): 64 nM

**Q.** Which remaining activity at 30 µM [1] does the source give for O=C(Nc1cc(F)c(F)c(-c2ccc(N[C@H]3C[C@@H]4CN(CC5CCOCC5)C[C@@H]4C3)nn2)c1)C1CC(F)(F)C1 [Compound A14, N-(3,4-difluoro-5-(6-(((3aR,5s,6aS)-2-((tetrahydro-2H-pyran-4-yl)methyl)octahydrocyclopenta[c]pyrrol-5-yl)amino)pyridazin-3-yl)phenyl)-3,3-difluorocyclobutane-1-carboxamide] here?
**A.** Its remaining activity at 30 µM is 4%.

**Q.** What about the IC50 (M4/Gqi5/CHO-K1 cells) of the same compound?
**A.** The IC50 was 160 nM.

**Q.** How did the remaining activity at 30 µM [2] turn out when O=C(Nc1cc(F)c(F)c(-c2ccc(N[C@H]3C[C@@H]4CN(CC5CCOCC5)C[C@@H]4C3)nn2)c1)C(F)F [Compound A15, N-(3,4-Difluoro-5-(6-(((3aR,5s,6aS)-2-((tetrahydro-2H-pyran-4-yl)methyl)octahydrocyclopenta[c]pyrrol-5-yl)amino)pyridazin-3-yl)phenyl)-2,2-difluoroacetamide] was run?
**A.** The remaining activity at 30 µM was 4%.

**Q.** And the IC50 (M4/Gqi5/CHO-K1 cells)?
**A.** Its IC50 is 15 nM.

**Q.** For N#CCC(=O)Nc1cc(F)c(F)c(-c2ccc(N[C@H]3C[C@@H]4CN(CC5CCOCC5)C[C@@H]4C3)nn2)c1 [Compound A16, 2-cyano-N-(3,4-difluoro-5-(6-(((3aR,5s,6aS)-2-((tetrahydro-2H-pyran-4-yl)methyl)octahydrocyclopenta[c]pyrrol-5-yl)amino)pyridazin-3-yl)phenyl)acetamide], which remaining activity at 30 µM [1] is on record?
**A.** Its remaining activity at 30 µM is 4%.

**Q.** And the IC50 (M4/Gqi5/CHO-K1 cells)?
**A.** Its IC50 is 47 nM.

**Q.** How did the remaining activity at 30 µM [2] turn out when CS(=O)(=O)CC(=O)Nc1cccc(-c2ccc(N[C@H]3C[C@@H]4CN(CC5CCOCC5)C[C@@H]4C3)nn2)c1 [Compound A17, 2-(Methylsulfonyl)-N-(3-(6-(((3aR,5s,6aS)-2-((tetrahydro-2H-pyran-4-yl)methyl)octahydrocyclopenta[c]pyrrol-5-yl)amino)pyridazin-3-yl)phenyl)acetamide] was run?
**A.** The remaining activity at 30 µM was 3%.

**Q.** What about the IC50 (M4/Gqi5/CHO-K1 cells) of the same compound?
**A.** The IC50 was 2.8 nM.

**Q.** What does the source list for O=C(NC12CC(C1)C2)c1cc(F)c(F)c(-c2ccc(N[C@H]3C[C@@H]4CN(CC5CCOCC5)C[C@@H]4C3)nn2)c1 [Compound A18, N-(Bicyclo[1.1.1]pentan-1-yl)-3,4-difluoro-5-(6-(((3aR,5s,6aS)-2-((tetrahydro-2H-pyran-4-yl)methyl)octahydrocyclopenta[c]pyrrol-5-yl)amino)pyridazin-3-yl)benzamide]?
**A.** remaining activity at 30 µM [2]: 3%; IC50 (M4/Gqi5/CHO-K1 cells): 27 nM

**Q.** Which remaining activity at 30 µM [1] does the source give for O=C(NC1CC(F)(F)C1)c1cc(F)c(F)c(-c2ccc(N[C@H]3C[C@@H]4CN(CC5CCOCC5)C[C@@H]4C3)nn2)c1 [Compound A19, N-(3,3-difluorocyclobutyl)-3,4-difluoro-5-(6-(((3aR,5s,6aS)-2-((tetrahydro-2H-pyran-4-yl)methyl)octahydrocyclopenta[c]pyrrol-5-yl)amino)pyridazin-3-yl)benzamide] here?
**A.** The remaining activity at 30 µM was 4%.

**Q.** What about the IC50 (M4/Gqi5/CHO-K1 cells) of the same compound?
**A.** The IC50 was 82 nM.

**Q.** With O=C(c1cc(F)c(F)c(-c2ccc(N[C@H]3C[C@@H]4CN(CC5CCOCC5)C[C@@H]4C3)nn2)c1)N1CC(F)(F)C1 [Compound A20, (3,4-difluoro-5-(6-(((3aR,5s,6aS)-2-((tetrahydro-2H-pyran-4-yl)methyl)octahydrocyclopenta[c]pyrrol-5-yl)amino)pyridazin-3-yl)phenyl)(3,3-difluoroazetidin-1-yl)methanone] as the compound, how does the remaining activity at 30 µM [1] read?
**A.** The remaining activity at 30 µM was 4%.

**Q.** And the IC50 (M4/Gqi5/CHO-K1 cells)?
**A.** The IC50 was 100 nM.

**Q.** What does the source list for O=C(c1ccc(-c2ccc(N[C@H]3C[C@@H]4CN(CC5CCOCC5)C[C@@H]4C3)nn2)cc1)N1CCCC1 [Compound A21, Pyrrolidin-1-yl(4-(6-(((3aR,5s,6aS)-2-((tetrahydro-2H-pyran-4-yl)methyl)octahydrocyclopenta[c]pyrrol-5-yl)amino)pyridazin-3-yl)phenyl)methanone]?
**A.** remaining activity at 30 µM [2]: 4%; IC50 (M4/Gqi5/CHO-K1 cells): 3.9 nM

**Q.** Which remaining activity at 30 µM [1] does the source give for O=C(c1ccc(-c2ccc(N[C@H]3C[C@@H]4CN(CC5CCOCC5)C[C@@H]4C3)nn2)cc1)N1CCCCC1 [Compound A22, piperidin-1-yl(4-(6-(((3aR,5s,6aS)-2-((tetrahydro-2H-pyran-4-yl)methyl)octahydrocyclopenta[c]pyrrol-5-yl)amino)pyridazin-3-yl)phenyl)methanone] here?
**A.** The remaining activity at 30 µM was 4%.

**Q.** What about the IC50 (M4/Gqi5/CHO-K1 cells) of the same compound?
**A.** The IC50 was 21 nM.

**Q.** For CC1(O)CN(C(=O)c2ccc(-c3ccc(N[C@H]4C[C@@H]5CN(CC6CCOCC6)C[C@@H]5C4)nn3)cc2)C1 [Compound A23, (3-hydroxy-3-methylazetidin-1-yl)(4-(6-(((3aR,5s,6aS)-2-((tetrahydro-2H-pyran-4-yl)methyl)octahydrocyclopenta[c]pyrrol-5-yl)amino)pyridazin-3-yl)phenyl)methanone], which remaining activity at 30 µM [1] is on record?
**A.** The remaining activity at 30 µM was 3%.

**Q.** And the IC50 (M4/Gqi5/CHO-K1 cells)?
**A.** Its IC50 is 15 nM.

**Q.** With CCN(CC)C(=O)c1ccc(-c2ccc(N[C@H]3C[C@@H]4CN(CC5CCOCC5)C[C@@H]4C3)nn2)cc1 [Compound A24, N,N-diethyl-4-(6-(((3aR,5s,6aS)-2-((tetrahydro-2H-pyran-4-yl)methyl)octahydrocyclopenta[c]pyrrol-5-yl)amino)pyridazin-3-yl)benzamide] as the compound, how does the remaining activity at 30 µM [1] read?
**A.** The remaining activity at 30 µM was 4%.

**Q.** What about the IC50 (M4/Gqi5/CHO-K1 cells) of the same compound?
**A.** The IC50 was 37 nM.

**Q.** How did the remaining activity at 30 µM [1] turn out when O=C(c1ccc(-c2ccc(N[C@H]3C[C@@H]4CN(CC5CCOCC5)C[C@@H]4C3)nn2)cc1)N1CCC(O)C1 (stereo partly drawn) [Compound A25, (3-hydroxypyrrolidin-1-yl)(4-(6-(((3aR,5s,6aS)-2-((tetrahydro-2H-pyran-4-yl)methyl)octahydrocyclopenta[c]pyrrol-5-yl)amino)pyridazin-3-yl)phenyl)methanone] was run?
**A.** The remaining activity at 30 µM was 4%.

**Q.** What about the IC50 (M4/Gqi5/CHO-K1 cells) of the same compound?
**A.** The IC50 was 25 nM.
